The values below come from ChEMBL document CHEMBL1201862, “PubChem BioAssay data set” (2004).

Active and inactive are the calls of the source. Rule as the data show it, for most assays here: actives have a measured EC50 and inactives only a lower limit. Bounds are passed on as bounds.

The nature of experiment [1]: viability of uninfected HEp-2 cells – cell-based, HTS, cytotoxicity control for RSV inhibitor project, dose response (AID 2410). The class given is functional. The conditions noted are these: human respiratory syncytial virus.
Experiment [2] deals with Cytochrome P450 2D6 (Homo sapiens, UniProt P10635).
A short description of experiment [3]: Trypanosoma cruzi growth suppression in host cells – NIH3T3 host cells, beta-gal luminescence, confirmation (AID 2044).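 Also: intracellular parasites grown in NIH/3T3 mouse fibroblasts as host cells; luminescent beta-galactosidase reporter signal from transgenic T. cruzi replicating inside host cells; inhibitors lower the luminescence signal.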 It is filed as functional, cell-based.
The nature of experiment [4]: NIH3T3 cell viability loss – ATP luminescence, mouse fibroblasts, counter-screen, dose response (AID 2010).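 Also: cells exposed to compound for about 90 hours before reading.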 It is filed as functional, cell-based.
Experiment [5] deals with Streptococcus sp. 'group A'. Put plainly: Streptococcus pyogenes SK(-)GAS viability under kanamycin – luminescence, BacTiterGlo, confirmation, counter-screen for streptokinase expression inhibitor project, dose response (AID 1900). The class given is functional, organism-based. Background: A counterscreen serves to expose hits that act by an unwanted route or on another target.

For experiment [6], the system named is Streptococcus. Description: GAS UMAA2166 growth inhibition – luminescence, BacTiterGlo, counter-screen for streptokinase expression inhibitor project, dose response (AID 1915).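 Also: potency for reduction of bacterial viability or growth.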 The class given is functional, organism-based.
The target in experiment [7] is Cytochrome P450 2C9 (Homo sapiens, UniProt P11712).
Experiment [8] has as its target T1, Heat shock factor protein 1 (Mus musculus, UniProt P38532).
T1 sequence (P38532 whole entry): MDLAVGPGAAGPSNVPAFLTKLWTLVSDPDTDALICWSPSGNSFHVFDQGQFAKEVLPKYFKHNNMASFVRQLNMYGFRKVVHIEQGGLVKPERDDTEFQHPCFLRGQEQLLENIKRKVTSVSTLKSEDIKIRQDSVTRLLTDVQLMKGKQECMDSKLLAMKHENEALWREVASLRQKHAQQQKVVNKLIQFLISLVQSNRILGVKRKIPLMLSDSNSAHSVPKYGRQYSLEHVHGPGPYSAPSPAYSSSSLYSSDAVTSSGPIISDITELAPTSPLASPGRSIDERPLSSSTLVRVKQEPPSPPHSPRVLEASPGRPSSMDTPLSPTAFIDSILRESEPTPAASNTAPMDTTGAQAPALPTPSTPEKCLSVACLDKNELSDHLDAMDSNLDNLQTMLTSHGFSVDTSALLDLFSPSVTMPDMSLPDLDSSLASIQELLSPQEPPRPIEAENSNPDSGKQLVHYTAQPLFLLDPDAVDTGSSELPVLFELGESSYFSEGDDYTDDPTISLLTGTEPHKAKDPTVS
Description: decrease of HSF1-responsive luciferase luminescence – cell-based, NIH3T3, dose retest, confirmation (AID 2382).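 Also: NIH3T3 fibroblasts with HSF1-driven luciferase reporter stressed by proteasome inhibitor MG132; luminescence from HSF1-driven luciferase expression after 8 hours of MG132 stress.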 It is filed as functional.

Sequence of Cytochrome P450 2D6 (P10635 whole entry): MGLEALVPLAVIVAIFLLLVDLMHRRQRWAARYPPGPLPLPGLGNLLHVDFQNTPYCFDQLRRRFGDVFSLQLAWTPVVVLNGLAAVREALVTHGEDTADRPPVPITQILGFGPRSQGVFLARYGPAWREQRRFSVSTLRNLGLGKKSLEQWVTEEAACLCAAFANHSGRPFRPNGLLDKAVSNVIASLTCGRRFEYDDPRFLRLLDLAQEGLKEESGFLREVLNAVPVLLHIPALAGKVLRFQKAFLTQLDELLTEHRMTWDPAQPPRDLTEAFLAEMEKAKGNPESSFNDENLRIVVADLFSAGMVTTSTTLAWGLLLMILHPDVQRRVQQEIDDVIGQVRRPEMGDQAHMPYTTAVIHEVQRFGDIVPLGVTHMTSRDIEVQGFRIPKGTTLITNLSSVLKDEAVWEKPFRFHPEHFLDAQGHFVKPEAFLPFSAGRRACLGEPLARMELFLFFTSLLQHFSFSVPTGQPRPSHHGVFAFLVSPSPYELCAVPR
Sequence of Cytochrome P450 2C9 (P11712 whole entry): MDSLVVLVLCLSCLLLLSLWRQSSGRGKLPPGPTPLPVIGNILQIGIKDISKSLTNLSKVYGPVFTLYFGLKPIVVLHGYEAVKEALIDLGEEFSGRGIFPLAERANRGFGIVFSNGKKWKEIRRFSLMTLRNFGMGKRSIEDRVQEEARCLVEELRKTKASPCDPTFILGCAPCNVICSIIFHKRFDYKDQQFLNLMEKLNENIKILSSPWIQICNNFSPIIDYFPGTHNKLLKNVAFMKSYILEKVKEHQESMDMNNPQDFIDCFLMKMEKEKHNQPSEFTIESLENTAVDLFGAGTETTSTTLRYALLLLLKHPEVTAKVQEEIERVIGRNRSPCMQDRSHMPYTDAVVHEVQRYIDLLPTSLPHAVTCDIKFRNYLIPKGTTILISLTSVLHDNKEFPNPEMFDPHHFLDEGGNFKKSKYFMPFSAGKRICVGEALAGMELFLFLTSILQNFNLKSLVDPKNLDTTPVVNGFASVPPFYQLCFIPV

As a reminder, the CC50 is the concentration that lowers cell viability or growth by half. Take `O=c1ccc2ccc(OCCOc3cccc(Cl)c3)cc2o1`: the CC50 in experiment [1] was 42.4 µM (active). As to `Cc1occc1-c1nc(-c2ccncc2)no1`, the CC50 in experiment [1] was 39.6 µM (active). Still for that read-out and setting: under `Cc1ccc(/C(C#N)=C\c2cn(C)c3ccccc23)cc1` stands 33.5 µM (active). As a reminder, the AC50 is the concentration at which the activity in the assay is half-maximal. Turning to `O=c1c(-c2ccc(F)cc2)nc2cnc(N3CCNCC3)nc2n1Cc1cccs1`, the AC50 in experiment [2] is 20 µM (inconclusive). Broadly, the EC50 is the concentration that produces a half-maximal response. `COc1ccc(Nc2nc(-c3cccs3)nc3ccccc23)cc1S(=O)(=O)N1CCOCC1`: the CC50 in experiment [1] was 17.1 µM (active). The figures for the EC50 in experiment [3] and in experiment [4] were 1.25 µM (active) and 10.1 µM (active), respectively.

Consider `O=C(COc1ccccc1)NC1C(=O)N2C(C(=O)O)=C(Cl)CSC12` (stereo not drawn), for which the results for the concentration for a half-maximal effect (EC50) in experiment [5] and in experiment [6] were 0.301 µM (active) and 0.372 µM (active), respectively. As to `CN1CCN(c2ccc([N+](=O)[O-])c(N/N=C3\CN4CCC3CC4)c2)CC1`, the AC50 in experiment [7] was 0.01 µM (inconclusive). Regarding `COc1ccc(CC(=O)Nc2cc(C)on2)cc1`, the EC50 in experiment [8] is listed as > 195 µM (not active). For the compound `OC[C@@H]1O[C@@H](n2cnc3c(N[C@H]4CCC[C@@H]4O)ncnc32)[C@H](O)[C@H]1O`, the AC50 in experiment [2] was 15.8 µM (inconclusive).

With `O=[N+]([O-])c1ccc(N2CCN(Cc3ccc4c(c3)OCO4)CC2)nc1`, in experiment [8], the EC50 is recorded as > 195 µM (not active). Consider `COc1ccc(-c2cc(-c3ccccc3)nc(Cl)n2)cc1OC`, for which the 50% cytotoxic concentration (CC50) in experiment [1] was 19.1 µM (active). Take `COc1ccc(CNC(=O)C2CC(c3ccc(OC)cc3)=NO2)cc1` (stereo not drawn): the AC50 in experiment [2] is 8.91 µM (inconclusive).

Take `COc1ccc(Cn2nnc3c(O)nc(C4CCN(S(=O)(=O)c5ccc(C)cc5)CC4)nc32)cc1`: the CC50 in experiment [1] is 15.7 µM (active). The same measure, in the same setting: the value for `Cn1nc(-c2ccc(Cl)cc2)cc1NC(=O)Nc1ccccc1` was > 50 µM (active). Consider `CN1CCc2c(cc(O)c(O)c2Cl)[C@H](c2cccc(Cl)c2)C1`, for which the AC50 in experiment [2] is 31.6 µM (inconclusive). On to `FC(F)(F)c1ccccc1-c1nc(Nc2ccncc2)c2ccccc2n1`, for which, in experiment [7], the concentration at half-maximal activity (AC50) is 0.794 µM (inconclusive). Still for that read-out and setting: the value for `C[C@H](NC[C@H](O)CP(=O)(O)Cc1ccccc1)c1ccc(Cl)c(Cl)c1` was 15.8 µM (inconclusive).

For `COCCNC(=O)CCc1nnc(C2(c3ccc(Cl)cc3)CCC2)o1`, the EC50 in experiment [8] is reported as > 195 µM (not active). Take `O=C(O)CCn1cc(/C=C2\NC(=S)N(c3ccccc3)C2=O)c(-c2ccc(Br)cc2)n1`: the EC50 in experiment [8] was > 195 µM (not active). Turning to `CS(=O)(=O)N1CCc2cc(-c3csc(NC(=O)C(c4ccccc4)c4ccccc4)n3)ccc21`, the EC50 in experiment [3] was 1.45 µM (active); in experiment [4], > 60 µM (not active). For `Cc1ccc(-n2c(S)nnc2CNc2ccc(C)c(Cl)c2)cc1`, in experiment [1], the CC50 was 27.7 µM (active). Consider `CCOC(=O)C1=C(C)N(CCC(=O)O)C(=O)NC1c1ccccc1Cl` (stereo not drawn), for which the EC50 in experiment [8] is on record as > 195 µM (not active). Take `C[n+]1c(/C=C/c2ccc3c(c2)OCO3)ccc2ccccc21`: in experiment [8], the EC50 was 0.181 µM (active). As for `Clc1ccc(-n2cccc2CN2CCc3c([nH]c4ccccc34)C2c2ccccn2)nc1` (stereo not drawn), the CC50 in experiment [1] is 25.1 µM (active). With `O=C(C(NS(=O)(=O)c1cccs1)c1ccccc1)N1CCN(c2ccccc2)CC1` (stereo not drawn), the AC50 in experiment [2] was 25.1 µM (inconclusive). As to `O=C1NC(=O)C2(CCc3ccccc32)N1` (stereo not drawn), in experiment [8], the EC50 is > 195 µM (not active). As for `CC(=O)N1CCC[C@@]2(CCN(c3ncccn3)C2)C1`, in experiment [2], the AC50 is 15.8 µM (inconclusive).

Take `CCN(CC)CCNc1cc(C)c(C#N)c2nc3ccccc3n12`: the figures for the EC50 in experiment [3] and in experiment [4] were 1.09 µM (active) and > 60 µM (not active), respectively.

`CCCCCCCC(=O)NNC(=O)c1c(O)c2ccccc2n(CCC)c1=O`: the results for the EC50 in experiment [5] and in experiment [6] were 2.67 µM (active) and 4.91 µM (active), respectively. As to `Clc1cccc(/C=N\C=N/c2cccc(Cl)c2)c1`, the AC50 in experiment [2] was 25.1 µM (inconclusive). Consider `COC(=O)C(Cc1ccccc1)NC(=O)CNC(=O)c1sc2ccccc2c1Cl` (stereo not drawn), for which the EC50 in experiment [8] is recorded as > 195 µM (not active).

Take `COc1cccc(C(=O)Nc2cccc(-c3ccccc3)c2)c1`: the CC50 in experiment [1] was 29.6 µM (active). As for `COc1ccc(/C=N/c2c(-c3ccc(OC)cc3)nc3n2CCS3)cc1`, the EC50 in experiment [8] is > 195 µM (not active).

With `CN(C)Cc1cc(O)c(O)c(CN(C)C)c1`, the AC50 in experiment [7] was 7.94 µM (inconclusive). Regarding `Cc1cc(C(=O)NNS(=O)(=O)c2ccc(F)cc2)nn1C(C)(C)C`, in experiment [8], the EC50 is given as > 195 µM (not active). Take `CCc1cccc(Nc2c([N+](=O)[O-])cc(C(=O)N3CC(=O)Nc4ccccc43)cc2[N+](=O)[O-])c1`: the EC50 in experiment [3] was 1.1 µM (active); in experiment [4] it was > 30 µM (not active).

Turning to `N#Cc1cccc(C#N)c1Oc1ccc(S(=O)(=O)Nc2ccc(Cl)cc2)cc1`, in experiment [8], the EC50 is reported as > 195 µM (not active). As for `COc1ccc(Cn2nnnc2C(c2cc3cccc(C)c3nc2O)N2CCN(C)CC2)cc1` (stereo not drawn), the EC50 in experiment [8] is listed as > 195 µM (not active).

As for `CS(=O)(=O)Nc1cccc(-c2ccc3ncnc(NCc4cccs4)c3c2)c1`, the AC50 in experiment [7] is 0.501 µM (inconclusive).

On to `CCC(C(=O)NC(C)(C)C)N(Cc1ccc(F)cc1)C(=O)c1snc(C(N)=O)c1N` (stereo not drawn), for which, in experiment [8], the EC50 was > 195 µM (not active). Consider `CNCCCCOc1ccc(C(C)(C)C)cc1Cl`, for which the EC50 is 0.834 µM (active) in experiment [3] and 9.37 µM (active) in experiment [4]. Consider `COC(=O)C(O)(c1ccc(NC(=S)NC(=O)c2ccc(Cl)cc2Cl)cc1)C(F)(F)F` (stereo not drawn), for which the CC50 in experiment [1] is > 50 µM (active). Consider `CCN(CC)CCCN/C(C)=C1\C(=O)NC(=O)N(C2CCCCC2)C1=O`, for which the EC50 was 0.35 µM (active) in experiment [3] and > 60 µM (not active) in experiment [4]. Consider `CC(NC(=O)c1ccccc1Br)c1ccc2c(c1)CCCC2` (stereo not drawn), for which the CC50 in experiment [1] is 21.5 µM (active). As to `O=S(=O)(NCC(c1cccnc1)N1CCN(Cc2ccccc2)CC1)c1ccccc1` (stereo not drawn), the figures for the EC50 in experiment [3] and in experiment [4] were 0.634 µM (active) and > 60 µM (not active), respectively. In the case of `O=C(Oc1ccccc1)N1CCC[C@@]2(CCN(c3ccccn3)C2)C1`, the AC50 in experiment [7] was 39.8 µM (inconclusive). Regarding `O=C(Nc1ccc(Cl)cn1)c1ccc2c(Cl)c3c(nc2c1)CCC3`, the EC50 in experiment [8] is 22.5 µM (active). Take `CCC(C)c1ccccc1NC(=O)c1cc2cccc([N+](=O)[O-])c2[nH]1` (stereo not drawn): the EC50 in experiment [3] was 1.35 µM (active); in experiment [4] it was > 60 µM (not active). The like results for `Cn1nc([N+](=O)[O-])nc1Oc1ccccc1` were, in that order, 0.459 µM (active) and > 60 µM (not active).

Take `CCN(CC)CCn1c(=N)n(CCOc2ccccc2)c2ccccc21`: the EC50 in experiment [3] is 1.43 µM (active). Take `CCOc1cc(-n2ncc(C#N)c2N)nc(SC)n1`: in experiment [1], the CC50 is 17.1 µM (active). In the case of `CC(C)OCCCn1c(NN)nc2ccccc2c1=O`, the EC50 in experiment [8] is > 195 µM (not active). On to `CCCS(=O)(=O)N1CCCC(C(=O)NCCN2CCOCC2)C1` (stereo not drawn), for which, in experiment [7], the AC50 was 7.08 µM (inconclusive). `CCN1c2nc3c(C)cccn3c(=O)c2CC2(C(=O)N(C)C(=O)N(C)C2=O)C1C` (stereo not drawn): in experiment [8], the EC50 is recorded as > 195 µM (not active). In the case of `C=CCSc1nc(N)cc(O)n1`, the concentration giving a half-maximal response (EC50) in experiment [8] is on record as > 195 µM (not active). Still for that read-out and setting: under `COc1ccc(Cn2c(SC)nc3ccccc32)cc1[N+](=O)[O-]` stands > 195 µM (not active). `O=C(NCc1ccccc1Cl)C(=O)c1c[nH]c2ccccc12`: the CC50 in experiment [1] was > 6.25 µM (active). Turning to `COc1cccc(Cn2c(=O)c(-c3cc(F)cc(F)c3)nc3cnc(OC)nc32)c1`, the AC50 in experiment [7] is 3.16 µM (inconclusive). As for `Cn1c(=O)c(-c2cccc(Cl)c2)nc2cncnc21`, in experiment [7], the AC50 was 39.8 µM (inconclusive). For `COc1cc(C(C(=O)NCc2ccccc2)N(Cc2ccco2)C(=O)c2cnccn2)cc(OC)c1OC` (stereo not drawn), the EC50 in experiment [8] is recorded as > 195 µM (not active). On to `Cn1c(/C=C/c2ccccc2)nc2ccccc2c1=O`, for which, in experiment [8], the EC50 is listed as > 195 µM (not active). For the compound `Cc1nn(Cc2cccc(C(=O)Nc3ccn(Cc4c(F)c(F)cc(F)c4F)n3)c2)c(C)c1[N+](=O)[O-]`, in experiment [1], the CC50 was 23.8 µM (active). Further, the EC50 was 0.882 µM (active) in experiment [3] and > 60 µM (not active) in experiment [4]. On to `CN(C)C(=O)N1CCC(C(=O)NCc2ccc(F)cc2Cl)CC1`, for which, in experiment [8], the EC50 is reported as > 195 µM (not active). The same measure, in the same setting: under `Cn1c(=O)c2c(nc(Oc3cccc(O)c3)n2C)n(C)c1=O` stands > 195 µM (not active). On to `CC1CCCN(S(=O)(=O)c2ccc(Br)s2)C1` (stereo not drawn), for which the EC50 in experiment [8] was > 195 µM (not active). In the case of `O=C(NC(c1ccccc1)c1cc(Cl)c2cccnc2c1O)c1cccnc1` (stereo not drawn), the EC50 in experiment [5] is 0.64 µM (active); in experiment [3], 0.488 µM (active); in experiment [4] it was > 60 µM (not active); in experiment [6], 2.15 µM (active).
